Test results reported in US20220402925A1, “COMPOUNDS AND METHODS FOR THE TREATMENT OF CYSTIC FIBROSIS” (Flatley Discovery Lab, LLC, priority 2019, published 2022).

Molecular target: T1, F508del CFTR (Homo sapiens, UniProt P13569, DEL508-508)
T1 construct: Primary CF airway epithelial cells were obtained from the UNC Cystic Fibrosis Tissue Procurement and Cell Culture Core; host or cells: primary CF airway epithelial cells
Test: Equivalent current assay in primary CF airway epithelial cells (Corrector Activity, NAUC normalized to 3 μM VX809)
Assay type: cell-based
Conditions: NAUC as % of positive control (VX-809)
Method in brief: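 Differentiated primary CF airway cells treated basolaterally 24 h at 37° C with compound (0.1% DMSO). Equivalent current recorded after 5 μM benzamil, stimulation with 10 μM forskolin plus 1 μM VX-770 or 3 μM FDL176, and block by 20 μM CFTR-172; vehicle-subtracted AUC normalized to 3 μM VX809; EC50 from sigmoid fit, Hill slope 1.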

T1 sequence (P13569 with tags, fused parts or gaps DEL508-508): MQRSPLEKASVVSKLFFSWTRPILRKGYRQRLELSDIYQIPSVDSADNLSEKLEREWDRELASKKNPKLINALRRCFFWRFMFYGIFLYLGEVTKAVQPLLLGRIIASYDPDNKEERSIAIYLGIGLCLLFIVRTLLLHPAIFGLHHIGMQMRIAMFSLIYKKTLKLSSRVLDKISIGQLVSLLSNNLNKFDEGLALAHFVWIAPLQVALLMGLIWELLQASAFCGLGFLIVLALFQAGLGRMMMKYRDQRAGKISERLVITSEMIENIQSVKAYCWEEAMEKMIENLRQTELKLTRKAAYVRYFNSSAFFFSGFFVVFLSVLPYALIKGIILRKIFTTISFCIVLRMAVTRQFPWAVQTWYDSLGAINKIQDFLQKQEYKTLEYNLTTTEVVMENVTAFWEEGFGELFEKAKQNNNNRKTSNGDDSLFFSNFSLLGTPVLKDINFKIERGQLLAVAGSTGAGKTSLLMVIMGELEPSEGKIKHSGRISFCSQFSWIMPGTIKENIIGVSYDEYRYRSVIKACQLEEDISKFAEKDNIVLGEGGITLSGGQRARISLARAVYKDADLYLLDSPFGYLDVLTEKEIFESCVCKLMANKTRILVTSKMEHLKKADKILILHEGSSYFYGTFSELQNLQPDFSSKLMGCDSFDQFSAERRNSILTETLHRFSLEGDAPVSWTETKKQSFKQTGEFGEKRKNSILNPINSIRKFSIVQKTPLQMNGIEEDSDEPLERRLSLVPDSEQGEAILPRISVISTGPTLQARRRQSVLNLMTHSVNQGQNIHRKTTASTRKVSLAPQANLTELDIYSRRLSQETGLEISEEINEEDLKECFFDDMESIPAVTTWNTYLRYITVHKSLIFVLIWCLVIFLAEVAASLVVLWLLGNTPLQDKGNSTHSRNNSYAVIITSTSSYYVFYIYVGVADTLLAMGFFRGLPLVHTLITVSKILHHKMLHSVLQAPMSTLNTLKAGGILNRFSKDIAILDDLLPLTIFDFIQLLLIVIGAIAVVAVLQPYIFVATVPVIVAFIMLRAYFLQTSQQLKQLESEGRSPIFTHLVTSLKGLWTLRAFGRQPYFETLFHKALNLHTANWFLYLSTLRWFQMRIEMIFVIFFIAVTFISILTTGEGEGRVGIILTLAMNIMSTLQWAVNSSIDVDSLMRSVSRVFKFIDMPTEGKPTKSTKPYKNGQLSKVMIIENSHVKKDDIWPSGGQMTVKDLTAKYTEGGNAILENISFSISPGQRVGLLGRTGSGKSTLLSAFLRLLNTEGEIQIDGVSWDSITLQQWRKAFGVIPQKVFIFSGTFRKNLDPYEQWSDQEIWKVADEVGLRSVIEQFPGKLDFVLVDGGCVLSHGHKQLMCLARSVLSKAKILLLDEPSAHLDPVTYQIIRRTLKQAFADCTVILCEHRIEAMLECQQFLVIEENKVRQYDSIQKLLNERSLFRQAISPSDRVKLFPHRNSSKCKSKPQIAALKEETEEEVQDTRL

Compound	Corr Activity (NAUC)
CCN(C(=O)Cn1nc(-c2cc(F)cc(C#N)c2)c2occc2c1=O)c1cc2c(cc1C)OC(F)(F)O2 [Example 167]	+++ (NAUC>70% of positive control)
Cc1cc2c(cc1N(C)C(=O)Cn1nc(-c3cc(Cl)cc(C#N)c3)c3occc3c1=O)OC(F)(F)O2 [Example 168]	+++ (NAUC>70% of positive control)
CCN(C(=O)Cn1nc(-c2cc(Cl)cc(C#N)c2)c2occc2c1=O)c1cc2c(cc1C)OC(F)(F)O2 [Example 169]	+++ (NAUC>70% of positive control)
Cc1c(N(C)C(=O)Cn2nc(-c3cc(F)cc(C#N)c3)c3occc3c2=O)ccc2c1OC(F)(F)O2 [Example 170]	++ (NAUC 70-40% of positive control)
Cc1c(N(C)C(=O)Cn2nc(-c3cc(Cl)cc(C#N)c3)c3occc3c2=O)ccc2c1OC(F)(F)O2 [Example 171]	+++ (NAUC>70% of positive control)
CCN(C(=O)Cn1nc(-c2cc(Cl)cc(C#N)c2)c2occc2c1=O)c1ccc2c(c1C)OC(F)(F)O2 [Example 172]	+++ (NAUC>70% of positive control)
CCN(C(=O)Cn1nc(-c2cc(F)cc(C#N)c2)c2occc2c1=O)c1ccc2c(c1C)OC(F)(F)O2 [Example 173]	+++ (NAUC>70% of positive control)
CCN(C(=O)Cn1nc(-c2cc(Cl)cc(Cl)c2)c2occc2c1=O)c1ccc2c(c1)OC(F)(F)O2 [Example 174]	++ (NAUC 70-40% of positive control)
CCN(C(=O)Cn1nc(-c2cc(F)cc(Cl)c2)c2occc2c1=O)c1ccc2c(c1)OC(F)(F)O2 [Example 176]	+++ (NAUC>70% of positive control)
Cc1cc2c(cc1N(C)C(=O)Cn1nc(-c3cc(F)cc(C#N)c3)c3occ(C(F)(F)F)c3c1=O)OC(F)(F)O2 [Example 178]	+ (NAUC<40% of positive control)
CCN(C(=O)Cn1nc(-c2cc(F)cc(C#N)c2)c2occ(C(F)(F)F)c2c1=O)c1cc2c(cc1C)OC(F)(F)O2 [Example 179]	++ (NAUC 70-40% of positive control)
CN(C(=O)Cn1nc(-c2cccc(Cl)c2)c2oc(NC(=O)OC(C)(C)C)cc2c1=O)c1ccc2c(c1)OC(F)(F)O2 [Example 181, tert-butyl (7-(3-chlorophenyl)-5-(2-((2,2-difluorobenzo[d][1,3]dioxol-5-yl)(methyl)amino)-2-oxoethyl)-4-oxo-4,5-dihydrofuro[2,3-d]pyridazin-2-yl)carbamate]	+++ (NAUC>70% of positive control)
CN(C(=O)Cn1nc(-c2cccc(C#N)c2)c2oc(CN3CCCCC3)cc2c1=O)c1ccc2c(c1)OC(F)(F)O2 [Example 182, 2-(7-(3-cyanophenyl)-4-oxo-2-(piperidin-1-ylmethyl)furo[2,3-d]pyridazin-5(4H)-yl)-N-(2,2-difluorobenzo[d][1,3]dioxol-5-yl)-N-methylacetamide]	+++ (NAUC>70% of positive control)
CC(O)c1cc2c(=O)n(CC(=O)N(C)c3ccc4c(c3)OC(F)(F)O4)nc(-c3cccc(Cl)c3)c2o1 (centres unmarked) [Example 183, 2-(7-(3-chlorophenyl)-2-(1-hydroxyethyl)-4-oxofuro[2,3-d]pyridazin-5(4H)-yl)-N-(2,2-difluorobenzo[d][1,3]dioxol-5-yl)-N-methylacetamide]	+++ (NAUC>70% of positive control)
CN(C(=O)Cn1nc(-c2cccc(Cl)c2)c2oc(C(C)(C)O)cc2c1=O)c1ccc2c(c1)OC(F)(F)O2 [Example 184, 2-(7-(3-chlorophenyl)-2-(2-hydroxypropan-2-yl)-4-oxofuro[2,3-d]pyridazin-5(4H)-yl)-N-(2,2-difluorobenzo[d][1,3]dioxol-5-yl)-N-methylacetamide]	+++ (NAUC>70% of positive control)
CN(C(=O)Cn1nc(-c2cccc(Cl)c2)c2oc(C(F)F)cc2c1=O)c1ccc2c(c1)OC(F)(F)O2 [Example 185]	+++ (NAUC>70% of positive control)
Cc1cc2c(cc1N(C)C(=O)Cn1nc(-c3cc(Cl)cc(C#N)c3)c3oc(C(F)F)cc3c1=O)OC(F)(F)O2 [Example 193]	+++ (NAUC>70% of positive control)
CN(C(=O)Cn1nc(-c2cccc(C#N)c2)c2oc(C(F)F)cc2c1=O)c1ccc2c(c1F)OC(F)(F)O2 [Example 197]	+++ (NAUC>70% of positive control)
CN(C(=O)Cn1nc(-c2cccc(C#N)c2)c2oc(CN3CCOCC3)cc2c1=O)c1ccc2c(c1)OC(F)(F)O2 [Example 199]	+ (NAUC<40% of positive control)
CN(C(=O)Cn1nc(-c2cccc(C#N)c2)c2oc(CN3CCCC3)cc2c1=O)c1ccc2c(c1)OC(F)(F)O2 [Example 200]	++ (NAUC 70-40% of positive control)
CCN(C(=O)Cn1nc(-c2cccc(C#N)c2)c2oc(CN3CCCCC3)cc2c1=O)c1ccc2c(c1)OC(F)(F)O2 [Example 201]	+++ (NAUC>70% of positive control)
CCN(C(=O)Cn1nc(-c2cccc(C#N)c2)c2oc(CN3CCOCC3)cc2c1=O)c1ccc2c(c1)OC(F)(F)O2 [Example 202]	+++ (NAUC>70% of positive control)
CCN(C(=O)Cn1nc(-c2cccc(C#N)c2)c2oc(CN3CCCC3)cc2c1=O)c1ccc2c(c1)OC(F)(F)O2 [Example 203]	+++ (NAUC>70% of positive control)
CN(C(=O)Cn1nc(-c2cccc(C#N)c2)c2oc(C(C)(C)O)cc2c1=O)c1ccc2c(c1)OC(F)(F)O2 [Example 204]	+++ (NAUC>70% of positive control)
CN(C(=O)Cn1nc(-c2cccc(Cl)c2)c2oc(C(=O)NC(C)(C)C)cc2c1=O)c1ccc2c(c1)OC(F)(F)O2 [Example 205, N-(tert-butyl)-7-(3-chlorophenyl)-5-(2-((2,2-difluorobenzo[d][1,3]dioxol-5-yl)(methyl)amino)-2-oxoethyl)-4-oxo-4,5-dihydrofuro[2,3-d]pyridazine-2-carboxamide]	+++ (NAUC>70% of positive control)
CCN(C(=O)Cn1nc(-c2cccc(C#N)c2)c2oc(C(=O)NC3(C)CC3)cc2c1=O)c1ccc2c(c1)OC(F)(F)O2 [Example 206]	++ (NAUC 70-40% of positive control)
CCN(C(=O)Cn1nc(-c2cccc(C#N)c2)c2oc(C(=O)N3CCCC34CC4)cc2c1=O)c1ccc2c(c1)OC(F)(F)O2 [Example 207]	+++ (NAUC>70% of positive control)
CCN(C(=O)Cn1nc(-c2cccc(C#N)c2)c2oc(C(=O)N(C)C(C)(C)C)cc2c1=O)c1ccc2c(c1)OC(F)(F)O2 [Example 208]	+++ (NAUC>70% of positive control)
CN(C(=O)Cn1nc(-c2cccc(Cl)c2)c2oc(C(=O)NCCO)cc2c1=O)c1ccc2c(c1)OC(F)(F)O2 [Example 212]	+ (NAUC<40% of positive control)
CN(C(=O)Cn1nc(-c2cc(C#N)cc(C(=O)O)c2)c2occc2c1=O)c1ccc2c(c1)OC(F)(F)O2 [Example 213, 3-cyano-5-(5-(2-((2,2-difluorobenzo[d][1,3]dioxol-5-yl)(methyl)amino)-2-oxoethyl)-4-oxo-4,5-dihydrofuro[2,3-d]pyridazin-7-yl)benzoic acid]	+ (NAUC<40% of positive control)

Next, values leading:

Corr Activity (NAUC)	Compound
+++ (NAUC>70% of positive control)	CCN(C(=O)Cn1nc(-c2cc(F)cc(F)c2)c2occc2c1=O)c1ccc2c(c1)OC(F)(F)O2 [Example 175]
+++ (NAUC>70% of positive control)	CCN(C(=O)Cn1nc(-c2cc(F)cc(C#N)c2)c2occc2c1=O)c1ccc2c(c1)OC(F)(F)O2 [Example 177]
+++ (NAUC>70% of positive control)	CN(C(=O)Cn1nc(-c2cccc(C#N)c2)c2oc(C(F)F)cc2c1=O)c1ccc2c(c1)OC(F)(F)O2 [Example 180, 2-(7-(3-cyanophenyl)-2-(difluoromethyl)-4-oxofuro[2,3-d]pyridazin-5(4H)-yl)-N-(2,2-difluorobenzo[d][1,3]dioxol-5-yl)-N-methylacetamide]
+++ (NAUC>70% of positive control)	CCN(C(=O)Cn1nc(-c2cccc(Cl)c2)c2oc(C(F)F)cc2c1=O)c1ccc2c(c1)OC(F)(F)O2 [Example 186]
+++ (NAUC>70% of positive control)	CCN(C(=O)Cn1nc(-c2cccc(C#N)c2)c2oc(C(F)F)cc2c1=O)c1ccc2c(c1)OC(F)(F)O2 [Example 187]
+++ (NAUC>70% of positive control)	CCN(C(=O)Cn1nc(-c2cc(C#N)cc(C(C)(C)C)c2)c2oc(C(F)F)cc2c1=O)c1ccc2c(c1)OC(F)(F)O2 [Example 188]
+++ (NAUC>70% of positive control)	CCN(C(=O)Cn1nc(-c2cc(C)cc(C#N)c2)c2oc(C(F)F)cc2c1=O)c1ccc2c(c1)OC(F)(F)O2 [Example 189]
+++ (NAUC>70% of positive control)	CCN(C(=O)Cn1nc(-c2cc(C#N)cc(OC)c2)c2oc(C(F)F)cc2c1=O)c1ccc2c(c1)OC(F)(F)O2 [Example 190]
+++ (NAUC>70% of positive control)	CCN(C(=O)Cn1nc(-c2cc(F)cc(C#N)c2)c2oc(C(F)F)cc2c1=O)c1ccc2c(c1)OC(F)(F)O2 [Example 191]
+++ (NAUC>70% of positive control)	CCN(C(=O)Cn1nc(-c2cc(Cl)cc(C#N)c2)c2oc(C(F)F)cc2c1=O)c1ccc2c(c1)OC(F)(F)O2 [Example 192]
+++ (NAUC>70% of positive control)	CCN(C(=O)Cn1nc(-c2cc(Cl)cc(C#N)c2)c2oc(C(F)F)cc2c1=O)c1cc2c(cc1C)OC(F)(F)O2 [Example 194]
++ (NAUC 70-40% of positive control)	CCN(C(=O)Cn1nc(-c2cc(F)cc(C#N)c2)c2oc(C(F)F)cc2c1=O)c1ccc2c(c1C)OC(F)(F)O2 [Example 195]
++ (NAUC 70-40% of positive control)	CCN(C(=O)Cn1nc(-c2cc(Cl)cc(C#N)c2)c2oc(C(F)F)cc2c1=O)c1ccc2c(c1C)OC(F)(F)O2 [Example 196]
++ (NAUC 70-40% of positive control)	CCN(C(=O)Cn1nc(-c2cc(C#N)cc(C(F)F)c2)c2oc(C(F)F)cc2c1=O)c1ccc2c(c1)OC(F)(F)O2 [Example 198]
